From patent US9079876B2, “Imidazole derivatives and preparation method and use thereof” (Beijing Orbiepharm Co., Ltd., priority 2010, dated 2015) come the findings set out here.

One assay deals with T1, COX-1 (Canis lupus familiaris, UniProt Q8HZR1).
T1 construct: in vitro activity study using beagle dog whole blood was conducted; from tissue; host or cells: beagle dog whole blood (platelets, by the same method as for human blood)
T1 sequence (Q8HZR1 28-603): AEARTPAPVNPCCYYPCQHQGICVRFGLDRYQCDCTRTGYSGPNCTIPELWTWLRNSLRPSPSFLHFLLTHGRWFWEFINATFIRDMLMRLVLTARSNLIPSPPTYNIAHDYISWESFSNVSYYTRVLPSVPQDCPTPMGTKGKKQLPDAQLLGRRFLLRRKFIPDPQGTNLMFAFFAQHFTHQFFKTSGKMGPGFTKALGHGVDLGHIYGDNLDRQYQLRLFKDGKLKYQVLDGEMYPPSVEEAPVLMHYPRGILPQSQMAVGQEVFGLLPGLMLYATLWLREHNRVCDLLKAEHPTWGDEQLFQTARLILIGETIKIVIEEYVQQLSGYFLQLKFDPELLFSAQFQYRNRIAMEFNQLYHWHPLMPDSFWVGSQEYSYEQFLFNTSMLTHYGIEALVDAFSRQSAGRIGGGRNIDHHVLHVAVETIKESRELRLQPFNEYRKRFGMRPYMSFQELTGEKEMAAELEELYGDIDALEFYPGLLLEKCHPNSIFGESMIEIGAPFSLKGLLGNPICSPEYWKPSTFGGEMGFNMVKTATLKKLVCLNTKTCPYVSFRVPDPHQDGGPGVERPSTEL
Briefly: Dog whole blood in vitro activity assay, COX-1. It is filed as cell-based, beagle dog. The conditions noted are these: read-out: IC50 (μg/mL) COX-1 (converted).

Assay [1] relates to mice forced swimming immobility time. The experiment in a line: Forced swimming test in mice (anti-depression model). Type of assay: in vivo, Male Kunming mice. As for the experimental part: In Vivo Study: The Forced Swimming Test in Mice (Evaluation on Anti-Depression Model)
Male Kunming mice, approximately 20 g, were randomized into six groups, i.e. normal group, positive drug group (fluoxetine 20 mg/kg), group A (5 mg/kg Compound 1), group B (10 mg/kg Compound 1), group C (20 mg/kg Compound 1), and group D (40 mg/kg Compound 1).
Single Dose Test: Mice were normally fed for 1 day and allowed to adapt to the environment. Then the mice were fasted (except water) for 16 hours, and were intragastrically administrated with a single dose of the test drug, and the normal group was intragastrically administrated with an equivalent amount of distilled water. 40 min after administration, the mice were placed in forced swimming test device (swimming environment: pool diameter 12.5 cm cylinder, water temperature 25° C. and water depth 10 cm). Mice swam for six minutes, and the immobility time (i.e., the time during which the limbs were immobile, or only the feet were thrashing or paddling) was recorded with an animal behavioral record system, for the latter 4 min within the 6 min recording period, and was used for statistical analysis.
(§1) Study with Three-Day Consecutive Dosing: Mice were normally fed for 1 day and allowed to adapt to the environment. Then the mice were intragastrically administrated with the test drug consecutively for three days (once per day). The normal group was intragastrically administrated equivalent amount of distilled water. Mice were fasted (except water) for 16 hours before the last dosing. 40 min after the last dosing, the mice were placed in forced swimming test device (swimming environment: pool diameter 12.5 cm cylinder, water temperature 25° C. and water depth 10 cm). Mice swam for six minutes, and the immobility time (i.e., the time during which the limbs were immobile, or only the feet were thrashing or paddling) was recorded with an animal behavioral record system, for the latter 4 min within the 6 min recording period, and was used for statistical analysis.
as §1, with “Seven-Day” for “Three-Day”, “seven” for “three”

On to `CS(=O)(=O)c1ccc(-n2cnc(Cl)c2-c2ccccc2)nc1` [Compound 1, 2-(4-chloro-5-phenyl-1H-imidazol-1-yl)-5-(methylsulfonyl)pyridine], for which the IC50 on COX-1 is 219 µM. The “forced swimming Immobility time” value is “tendency of reduction in forced swimming immobility time” in assay [1] (3 days consecutive administration, 5 mg/kg intragastric, 5 mg/kg); 119.73 ± 24.55 in assay [1] (3 days consecutive administration, 5 mg/kg intragastric, 5 mg/kg, in s (unit assumed)); 91.73 ± 22.08 in assay [1] (3 days consecutive administration, 10 mg/kg intragastric, in s (unit assumed)); 83.12 ± 32.57 in assay [1] (3 days consecutive administration, 20 mg/kg intragastric, in s (unit assumed)); 63.32 ± 30.46 in assay [1] (3 days consecutive administration, 40 mg/kg intragastric, in s (unit assumed)); “tendency of reduction in forced swimming immobility time” in assay [1] (7 days consecutive administration, 5 mg/kg intragastric, 5 mg/kg). Also, the “forced swimming Immobility time” value is given as 102.72 ± 34.07 in assay [1] (7 days consecutive administration, 5 mg/kg intragastric, 5 mg/kg, in s (unit assumed)); 86.40 ± 34.65 in assay [1] (7 days consecutive administration, 10 mg/kg intragastric, in s (unit assumed)); 86.84 ± 30.21 in assay [1] (7 days consecutive administration, 20 mg/kg intragastric, in s (unit assumed)); 83.84 ± 35.50 in assay [1] (7 days consecutive administration, 40 mg/kg intragastric, in s (unit assumed)); “tendency of reduction in forced swimming immobility time” in assay [1] (single dose, 5 mg/kg intragastric, 40 min after administration, 5 mg/kg); 102.24 ± 27.33 in assay [1] (single dose, 5 mg/kg intragastric, 40 min after administration, 5 mg/kg, in s (unit assumed)). Moreover, the “forced swimming Immobility time” value is reported as 92.85 ± 38.81 in assay [1] (single dose, 10 mg/kg intragastric, 40 min after administration, in s (unit assumed)); 87.55 ± 42.50 in assay [1] (single dose, 20 mg/kg intragastric, 40 min after administration, in s (unit assumed)); 90.86 ± 39.53 in assay [1] (single dose, 40 mg/kg intragastric, 40 min after administration, in s (unit assumed)).
